In patent publication US6699497B1 (Alza Corporation, priority 1998, dated 2004):
Structures can show the parent of a compound that is named as a salt.

How the values were obtained:
[1] = in vitro transdermal flux of fenoldopam through human epidermis; assay type: in vitro ADME
Excerpt: The resulting mix was then calendered to a 5 mil thickness between 2 release liners. The drug reservoir was then heat laminated to a Medpar® backing on one surface and a 3M acrylate adhesive on the other. Circular systems were cut with a stainless steel punch.
The release liner of the matrix system was then removed and each system had its exposed edges masked. The systems were then mounted on a Teflon® holder of a release rate rod using nylon mesh and nickel wire. A known volume of receptor solution (30 ml 0.01 M phosphate buffer solution at pH 2.5) was then placed in a test tube and equilibrated at 35° C. The test tube was placed in a water bath and maintained at 35° C. The Teflon rod with attached system was then reciprocated within the test tube by attaching the rod to a motor which caused constant vertical mixing.
At given time intervals, the entire receptor solution was removed from the test tubes and replaced with an equal volume of fresh receptor solutions previously equilibrated at 35° C. […] From the drug concentration and the volume of the receptor solutions, the area of the system and the time interval, the release rate of the drug from the system was calculated as follows: (drug concentration X volume of receptor)/(area x time) =release rate (μg/cm^2·hr).
(§1) Transdermal systems set forth in Table 1 were prepared according to Example 1 and used to measure permeation through human cadaver skin. […] The edges of epidermis were then folded around the system so that none of the system edge was exposed to the receptor solution. […] The receptor compartment was filled with a known volume of 0.01 M KH2PO4/K2HPO4 which was adjusted to pH 2.5 with 10% H3PO4 buffer solution previously equilibrated at 35° C.
as §1, with “in Table 2 were prepared” for “in Table 1 were prepared”, “according to the procedure set forth in Example 1” for “according to Example 1”

[2] = oral administration; cited from earlier work
[3] = mild to moderate hypertensive patients; cited from earlier work
[4] = in vivo; cited from earlier work

| lag period on transdermal administration [1] | permeability through the skin, formulations of base compared to formulations of salts ([1]; in general, compared to salts such as fenoldopam mesylate) | transdermal flux compared to formulations of the base ([1]; myristyl sarcosine as permeation enhancer) | Structure (SMILES) | clinical benefit [2] | elimination half-life [3] | effect on systolic and diastolic blood pressure [4] |
| --- | --- | --- | --- | --- | --- | --- |
| long lag period | more permeable through the skin | – | Oc1ccc(C2CNCCc3c2cc(O)c(O)c3Cl)cc1 (stereo not shown) [fenoldopam base] | – | – | – |
| did not exhibit the long lag period | – | higher transdermal fluxes | Oc1ccc(C2CNCCc3c2cc(O)c(O)c3Cl)cc1 (stereo not shown) [fenoldopam mesylate] | – | – | – |
| – | – | – | Oc1ccc(C2CNCCc3c2cc(O)c(O)c3Cl)cc1 (stereo not shown) [fenoldopam, 6-Chloro-2,3,4,5-tetrahydro-1-(4-hydroxyphenol)-1H-3-benzapine-7,8 diol] | does not provide any clinical benefit | about 5 minutes | dose-dependent reduction in systolic and diastolic blood pressure |
